How the values were obtained:
Promyelotic HL-60 cells = assay: MTT assay, cytotoxic effect on HL-60 cells; type: cell-based
Description: (§1) To investigate the cytotoxic effect of inventive extract of P. longifolium extract and the compound isolated therefrom was determined by (3-[4,5-dimethylthiazol-2-yl]-2,5-diphenyl tetrazolium bromide(MTT) assay method (Wang Z et al., Biol., Pharm. Bull., 24, pp 159-162, 2001).
(§2) Promyelotic HL-60 cells (HL-18103, 5×10^5 cells/ml) were seeded in 96-well plates under NGF-free condition. After 24 hours incubation, the cells were treated with the mixture of samples dissolved in 10 μl of DMSO and 10 μl of MTT solution (5 mg/ml), and incubated for 4 hours under similar condition. 4 hours later, MTT was removed and 100 μl of DMSO was dropped into each well to dissolve crystals. At 570 nm, UV absorbance was measured by microplate reader (BIO-RAD, U.S.A.) to calculate the cell viability.

[1] = MTT assay, cytotoxic effect on HL-60 cells; type: cell-based; settings: human, HL-60 promyelocytic cells, read-out: Cell viability (%)
Description: as §1, §2

IgE = assay: Measurement of IgE by ELISA in plasma and BALF of OVA-challenged mice; type: in vivo, mouse; settings: for IgE level in BALF: OVA-treated mice 59.4±38.4; for IgE level in plasma: OVA-treated mice 85.6±17.3
Description: (§3) Following treatment: (1) sham-sensitization plus challenge with phosphate-buffered saline (PBS; ipNeb); (2) sensitization plus challenge with OVA (ovalbumin: Sigma A5503; Sigma, St. Louis, Mo.)(ipNeb); (3) sensitization with OVA (i.p.) plus challenge with OVA (Neb) and samples (extract of P. longifolium or montelukast) was performed to Group of mice (n=5). Briefly, mice were sensitized by intraperitoneal injection of 20 μg OVA, which was emulsified with 2 mg aluminum hydroxide in 100 μl of PBS buffer (pH 7.4) on days 0 and 14. The mice were challenged through the airways with OVA (1% in PBS) for 20 min using an ultrasonic nubuilizer (NE-U12; Omron Corp., Tokyo, Japan) on days 28, 29 and 30 after the initial sensitization. The mice were sacrificed 48 h after the last challenge (day 32) to determine the suppression effect of extract of P. longifolium or verproside on the airways of allergic asthma.
(§4) The extract of P. longifolium, and verproside were suspended in PBS and administered intragastrically using a 25-gauge stainless steel blunt feeding needle 1 h before each challenge, and control animals were exposed only on the PBS solution. As a positive control, montelukast (MSD Korea Ltd., Seoul, Korea) was treated with the same procedure in the experiment.
(§5) Complementary capture and detection antibody pairs for mouse IgE antibodies were purchased from PharMingen (San Diego, Calif.), and the IgE enzyme-linked immunosorbent assay (ELISA) was performed according to the manufacturer's directions. Duplicate samples in plasma were diluted to 1:100. IgE levels in each sample were measured from optical density readings at 450 nm, and IgE concentrations were calculated from a standard curve that was generated using recombinant IgE (5-2,000 ng/ml). The amount of IL-4 and IL-13 contained in BALF was measured with a specific mouse ELISA kit (R&D Systems; Minneapolis, Minn.). The detection limit of the assays was 250 pg/ml.

OVA-challenged mice [2] = assay: Lung histology (H&E and PAS staining) in OVA-challenged mice; type: in vivo, BALB/c mice; settings: for mucus area score: PAS, five-point system 0-4, OVA-treated mice 3.60±0.64, FIG. 5
Description: as §3, §4
To estimate the suppressive effect of verproside on the eosinophilia, lung tissues were collected 48 hours after the last challenge. The lung tissue was fixed for 24 h in 10% neutral-buffered formalin. After being embedded in paraffin, it is sliced into 4-μm thickness of sections and the tissue was stained with H&E solution (hematoxylin; Sigma MHS-16 and eosin, Sigma HT110-I-32).
In Periodic acid Schiff (PAS) staining, mucus overproduction in the OVA-treated mice was clearly observed as a violet color in the bronchial airways compared with the normal mice. […] Goblet-cell hyperplasia in the airway epithelium was quantified based on a five-point system: 0, no goblet cells; 1, <25% of the epithelium; 2, 25-50% of the epithelium; 3, 50-75% of the epithelium; 4, >75% of the epithelium. For each mouse, five airway sections that were randomly distributed throughout the left lung were analysed, and their average scores were calculated. Quantitative analysis of mucus production was performed using an image analyzer (Leica Microsystem Imaging solution Ltd.; Cambridge, UK).

OVA-challenged mice [3] = assay: OVA-induced eosinophilia: inflammatory cell counts in bronchoalveolar lavage fluid; type: in vivo, BALB/c mice; settings: from OVA-treated control group; 48 hours after last challenge
Description: (§6) Specific pathogen-free female BALB/c mice aged 8-10 weeks, which were routinely screened serologically for relevant respiratory pathogens, were purchased from ORIENT Co Ltd (Seoul, Korea).
as §3, §4
The mice were sacrificed with an overdose of pentobarbital (Sigma P3761) […] after the last challenge, and a tracheotomy was performed. After ice-cold 0.5 ml of PBS was instilled into the lungs, bronchoalveolar lavage fluid (BALF) was obtained by aspiration three times (total 1.5 ml) via tracheal cannulation (Yamazaki T, J. Jap. Bot., 43, pp 117-24, 1968)
The total inflammatory cell number was assessed by counting cells in at least five squares of a hemocytometer after excluding dead cells confirmed by staining with trypan blue (Daigle I. et al., Swiss Med Wkly, 131, pp 231-7, 2001). 100 μl of BALF was loaded onto a slide and centrifuged (200×g, 4° C., 10 min) to fix the cells onto the slide using a cytospine machine (Hanil Science Industrial, Korea). The cells were stained by Diff-Quick® Stain reagents (Sysmex, Cat No. 38721, Switzerland) according to the manufacturer's instructions. Statistical significance was determined by Student's two-tailed t-test for independent means and the critical level for significance was set at P<0.05.
To evaluate the suppression of verproside on the eosinophilia in OVA-challenged mice, the recruited cells in BALF were counted 48 hours after the last challenge. OVA caused a marked influx of leucocytes into the BALF from a PBS control group.

IL-4 = assay: Measurement of IL-4 in BALF by ELISA in OVA-induced asthmatic mice; type: in vivo, mouse; settings: from OVA-challenged group; 48 hours after last challenge
Description: (§7) Following treatment: (1) sham-sensitization plus challenge with phosphate-buffered saline (PBS; ipNeb); (2) sensitization plus challenge with OVA (ovalbumin: Sigma A5503; Sigma, St. Louis, Mo.)(ipNeb); (3) sensitization with OVA (i.p.) plus challenge with OVA (Neb) and samples (extract of P. longifolium or montelukast) was performed to Group of mice (n=5). Briefly, mice were sensitized by intraperitoneal injection of 20 μg OVA, which was emulsified with 2 mg aluminum hydroxide in 100 μl of PBS buffer (pH 7.4) on days 0 and 14. […]
as §5, with “Duplicate samples in plasma were diluted to 1:100.” left out, “The detection limit of the assays was 250 pg/ml.” left out
(§8) To determine the effect of verproside on cytokine release in the OVA-induced asthmatic mice, the levels of cytokines (IL-4 and IL-13) in BALF were measured using ELISA 48 hours after the last challenge. […]

IL-13 = assay: Measurement of IL-13 in BALF by ELISA in OVA-induced asthmatic mice; type: in vivo, mouse; settings: from OVA-challenged group; 48 hours after last challenge
Description: as §7
as §5, with “Duplicate samples in plasma were diluted to 1:100.” left out, “The detection limit of the assays was 250 pg/ml.” left out
as §8

[4] = tested on: OVA-sensitized/challenged mouse model; assay: Airway hyperresponsiveness (AHR), Penh values in OVA-challenged mice; type: in vivo, BALB/c mice; settings: 24 hours after final OVA challenge; FIG. 1
Description: The AHR was evaluated by calculation Penh values (enhanced pause) 24 hours after the final OVA challenge.
as §6
as §3, with “asthma. […]” for “asthma.”

Row | SMILES | Cell viability (%) (Promyelotic HL-60 cells; 50 μM) | Cell viability (%) (Promyelotic HL-60 cells; 100 μM) | viability at 4 h, 50 µM ([1]; 50 μM) | viability at 4 h, 100 µM ([1]; 100 μM) | IgE level in BALF (IgE) | IgE level in plasma (IgE) | mucus area score (OVA-challenged mice [2]) | decrease in eosinophils in BALF (OVA-challenged mice [3]) | decrease in total cells in BALF (OVA-challenged mice [3]) | decrease in IL-4 in BALF (IL-4) | decrease in IL-13 in BALF (IL-13) | infiltration of eosinophil-rich leukocytes in lung tissue (H&E) (OVA-challenged mice [2]; compared with OVA-treated mice, 48 hours after last challenge, FIG. 3) | mucus in bronchial airways (PAS staining) (OVA-challenged mice [2]; compared with OVA-treated mice, FIG. 4) | Penh value compared with OVA-treated group (in words) [4]
1 | COc1ccc(C(=O)O[C@H]2[C@@H]3C=CO[C@@H](O[C@@H]4O[C@H](CO)[C@@H](O)[C@H](O)[C@H]4O)[C@@H]3[C@@]3(CO)O[C@@H]23)cc1OC [6-O-veratroyl catalpol, 6-O-(3,4-dimethoxybenzoyl) catalpol] | 116% | 114% |  |  |  |  |  |  |  |  |  |  |  | 
2 | COc1ccc(/C=C/C(=O)O[C@H]2[C@@H]3C=CO[C@@H](O[C@@H]4O[C@H](CO)[C@@H](O)[C@H](O)[C@H]4O)[C@@H]3[C@@]3(CO)O[C@@H]23)cc1O [Minecoside, 6-O-3-hydroxy-4-methozycinnamoyl catalpol] |  |  | 98% | 95% |  |  |  |  |  |  |  |  |  | 
3 | CC(C)(O)c1ccccc1CC[C@@H](SCC1(CC(=O)O)CC1)c1cccc(/C=C/c2ccc3ccc(Cl)cc3n2)c1 [montelukast, reference compound] |  |  |  |  | 3.8 ± 0.7 ng/mL | 31.4 ± 14.2 µg/mL | 1.53±0.24 | 80.7±11.1% | 78.3±12.1% | 69.5±22.0% | 84.5±8.2% |  |  | 
4 | O=C(O[C@H]1[C@@H]2C=CO[C@@H](O[C@@H]3O[C@H](CO)[C@@H](O)[C@H](O)[C@H]3O)[C@@H]2[C@@]2(CO)O[C@@H]12)c1ccc(O)c(O)c1 [verproside, 6-O-3,4-Dihydroxybenzoyl catalpol] | 105% | 102% |  |  | 21.5 ± 11.2 ng/mL | 40.2 ± 13.2 µg/mL | 1.43±0.23 | 86.2±7.2% | 79.3±13.1% | 64.5±27.7% | 74.9±15.5% | significantly attenuated | markedly diminished | significantly reduced

— patent US8974837B2, “Pharmaceutical composition comprising an extract of Pseudolysimachion longifolium and the catalpol derivatives isolated therefrom having antiinflammatory, antiallergic and antiasthmatic activity” (Korea Research Institute of Bioscience and Biotechnology, priority 2005, dated 2015)
